Laboratory results taken from patent US20020068712A1, “Use of decreasing levels of functional transient receptor potential gene product” (priority 1999, published 2002).

Columns and labels:
Assay type in all cases: cell-based, rat
RPAECs [1] = experiment: Whole cell patch clamp determination of store-operated Ca2+ entry
Protocol: Whole cell patch clamp was utilized to measure transmembrane ion flux in thapsigargin-stimulated RPAECs. Confluent RPAECs were enzyme dispersed, seeded onto 35-mm plastic culture dishes, and then allowed to reattach for at least 24 h before patch-clamp experiments were performed. […] These cells were chosen for study because their morphology was consistent with RPAECs from a confluent monolayer. The extracellular and pipette solutions were composed of the following (in mM): 1) extracellular: 110 tetraethylammonium aspartate, 10 calcium aspartate, 10 HEPES, and 0.5 3,4-diaminopyridine; and 2) pipette: 130 N-mehyl-D-glucamine, 1.15 EGTA, 10 HEPES, 1 Ca(OH)2, and 2 Mg^2+-ATP. Both solutions were adjusted to 290-300 mosM with sucrose and pH 7.4 with methane sulfonic acid, and [Ca^2+]i was estimated as 100 nM (10). The pipette resistance was 2-5 MΩ. Data were obtained with a HEKA EPC9 amplifier (Lambrecht/Pfaltz) and sampled on-line with Pulse+Pulsefit software (HEKA). All recordings were made at room temperature (22° C.). To generate current-voltage (I-V) relationships, voltage pulses were applied from −100 to +100 mV in 20-mV increments, with a 200-ms duration during each voltage step and a 2-s interval between steps. The holding potential between each step was 0 mV.

RPAECs [2] = experiment: Assessment of filamentous actin arrangement (confocal microscopy)
Protocol: Experiments to determine filamentous actin (F-actin) arrangement were conducted in parallel with those assessing endothelial cell shape. […] were seeded onto glass coverslips, and F-actin was stained with Oregon Green-phalloidin (Molecular Probes) with a standard fixation and staining protocol. Cells were analyzed by confocal microscopy (excitation at 496 nm and emmision at 520 nm). Micrographs were taken at multiple cellular depths (0.3-μm steps, 13-15 sections) and were used to deduce the microfilamentous cytoskeleton configurations of the cells.

RPAECs [3] = experiment: [Ca2+]i measurement by fura 2 fluorescence
Protocol: RPAECs were seeded onto chambered glass coverslips (Nalge Nunc, Naperville, Ill.) and grown to confluence. [Ca^2+]i was estimated with the Ca^2+-sensitive fluorophore fura 2-AM (Molecular Probes, Eugene, Oreg.) according to methods previously described by our laboratory (38). Because this is the first report of [Ca^2+]i measurements in cultured RPAECS, a summary of the technique will be presented. RPAECs were washed with 2 ml of a HEPES (Fisher Scientific, Atlanta, Ga.)-buffered physiological salt solution (PSS) containing (in g/l) 6.9 NaCl, 0.35 KCl, 0.16 KH2PO4, 0.141 MgSO4, 2.0 D-glucose, and 2.1 NaHCO3. The loading solution (1 ml) consisted of PSS plus 3 μM fura 2-AM, 3 μl of a 10% pluronic acid solution, and 2 mM or 100 nM CaCl2. RPAECs were fura loaded for 20 min in a CO2 incubator at 37° C. After this loading period, the cells were again washed with PSS (2 ml) and treated with deesterification medium (PSS+2 mM or 100 nM CaCl2) for an additional 20 min. After deesterification, [Ca^2+]i was assessed with an Olympus 1×70 inverted microscope at ×400 with a xenon arc lamp photomultiplier system (Photon Technologies, Monmouth Junction, N.J.), and data were acquired and analyzed with PTI Felix software. Epifluorescence (signal averaged) was measured from three to four endothelial cells in a confluent monolayer, and the changes in [Ca^2+]i are expressed as the fluorescence ratio of the Ca^2+-bound (340-nm) to Ca^2+-unbound (380-nm) excitation wavelengths emitted at 510 nm.

RPAECs [4] = experiment: Assessment of endothelial cell shape change (scanning electron micrographs)
Protocol: were seeded onto 35-mm plastic culture dishes and grown to confluence. Growth medium was replaced with experimental buffer (same as that used for [Ca^2+]i measurements but without fura 2), and the cells were subjected to one of the following protocols: 1) vehicle control (5 min) in 2 mM or 100 nM extracellular Ca^2+ concentration ([Ca^2+]o); 2) thapsigargin (1 μM, 5 min) in 2 mM or 100 nM ([Ca^2+]o; or 3) thapsigargin in 100 nM [Ca^2+]o+readdition of 2 mM CaCl2 (5 min). At the end of each experiment, the cell monolayers were fixed in 3% gluteraldehyde-PBS for 2 h. The cells were washed two times with 0.1 M cacodylate buffer, dehydrated by immersion in a series of ethanol dilutions, critical point dried in CO2, and covered with 20 nm of gold. Specimens were viewed at […] at a 15° inclination. Scanning electron micrographs were taken of representative areas in the monolayer by a pathologist blinded to the experimental protocols.

[5] = thapsigargin in 100 nM [Ca2+]o, then readdition of 2 mM [Ca2+]o
[6] = thapsigargin-stimulated current, data not shown

| Structure (SMILES) | net inward current stimulated (RPAECs [1]; 1 μM thapsigargin in pipette, at −80 mV) | slope conductance (RPAECs [1]; 1 μM thapsigargin in pipette, calculated from −100 to −20 mV without respect to cell capacitance) | effect on I-V curve (RPAECs [1]; 1 μM thapsigargin in pipette, whole cell, 3-5 min) | F-actin arrangement (RPAECs [2]; thapsigargin in low [Ca2+]o, then readdition of 2 mM [Ca2+]o) | F-actin arrangement (RPAECs [2]; thapsigargin, 2 mM [Ca2+]o) | F-actin arrangement (RPAECs [2]; thapsigargin, low (100 nM) [Ca2+]o, compared with low [Ca2+]o alone) | [Ca2+]i response (fura 2 340/380 fluorescence ratio) (RPAECs [3]; thapsigargin 1 μM, 2 mM [Ca2+]o) | [Ca2+]i response after readdition of [Ca2+]o (RPAECs [3]; [5]) | peak and sustained plateau phases of [Ca2+]i response (RPAECs [3]; thapsigargin, 100 nM [Ca2+]o) | endothelial cell shape / intercellular gaps (RPAECs [4]; thapsigargin 1 μM, 5 min, 100 nM [Ca2+]o) | endothelial cell shape / intercellular gaps (RPAECs [4]; thapsigargin 1 μM, 5 min, 2 mM [Ca2+]o) | endothelial cell shape / intercellular gaps (RPAECs [4]; [5]) | effect on inward current at negative voltages (RPAECs [1]; [6]) | effect on outward current at positive voltages (RPAECs [1]; [6]) |
| --- | --- | --- | --- | --- | --- | --- | --- | --- | --- | --- | --- | --- | --- | --- |
| C/C=C(/C)C(=O)O[C@H]1C(C)=C2[C@H]([C@@H]1OC(=O)CCCCCCC)[C@@](C)(OC(C)=O)C[C@H](OC(=O)CCC)[C@@]1(O)[C@H]2OC(=O)[C@@]1(C)O [Thapsigargin, thapsigargin] | 5.45±0.90 pA/pF | 1.64 nS | right shifted the I-V curve and increased the current magnitude | appearance of dense, transcellular fibers and a decrease in peripheral F-actin staining | a decrease in peripheral F-actin density and an increase in the number and/or density of central transcellular F-actin filaments | only modest changes in F-actin arrangements | gradual increase in [Ca^2+]i to a peak level followed by a modest decline | immediate increase in [Ca^2+]i | significantly attenuated | little change in morphology and a lack of interendothelial gaps | endothelial cell retraction and intercellular gap formation | pronounced cell retraction and gap formation |  |  |
| O=C(O)c1ccccc1Nc1ccccc1 [N-phenylanthranilic acid] |  |  |  |  |  |  |  |  |  |  |  |  | little effect | strongly attenuated |
